Assay results as given in patent US20160030407A1, “Method of Treating Inflammatory Lung Disease” (priority 2010, published 2016).
“And” between values parts separate entries of the source, which are not always exact repeats. Identical values can stand only once. Like-named read-outs stand apart in the source and are kept apart here.

Assays:
nAChR α7 = target: T1, nAChR α7 (Homo sapiens, UniProt P36544); test: nAChR α7 channel agonist assay (FLIPR); assay type: cell-based; settings: in presence of PNU-120596; maximal stimulation not achieved
T1 construct: host or cells: CHO cells coexpressing RIC-3
Method: (§1) Briefly, cells were incubated with […] dye for 30 min at 37° C.
Therefore, the assay of agonist activity for either Ach or for the test articles was conducted in the presence of the positive allosteric modulator.

[1] = Single i.v. dose toxicity: hematology; assay type: in vivo, Sprague-Dawley rats
Source text: On day 15, urine was collected on all surviving animals for urinalysis. The animals were euthanized and bled via cardiac puncture. Blood was collected for hematology, clinical chemistry, and coagulation analysis. Tissues were collected, weighed, and stored in 10% neutral-buffered formalin for possible future analysis.

nAChR α4/β2 = target: T2, nAChR α4/β2 (Homo sapiens, UniProt P17787+P43681); assay type: cell-based; settings: for Normalized % Potentiation: with 10 μM Ach, 100% = 10 μM Ach+3 μM epibatidine, 0% = 10 μM Ach
T2 construct: host or cells: HEK293 cells, transient
Method: as §1

nAChR α3/β4 = nAChR α3/β4 (Homo sapiens, UniProt P30926+P32297); assay type: cell-based
Method: as §1

[2] = 0.75 mg/kg nicotine, female rats, individual animals
[3] = 0.75 mg/kg nicotine, female rats, individual animals, tartrate
[4] = 0.75 mg/kg nicotine, male rats, individual animals
[5] = 0.75 mg/kg nicotine, male rats, individual animals, tartrate
[6] = 0.75 mg/kg, gender F, group mean
[7] = 0.75 mg/kg, gender M, group mean

T2 sequence (P43681 29-627): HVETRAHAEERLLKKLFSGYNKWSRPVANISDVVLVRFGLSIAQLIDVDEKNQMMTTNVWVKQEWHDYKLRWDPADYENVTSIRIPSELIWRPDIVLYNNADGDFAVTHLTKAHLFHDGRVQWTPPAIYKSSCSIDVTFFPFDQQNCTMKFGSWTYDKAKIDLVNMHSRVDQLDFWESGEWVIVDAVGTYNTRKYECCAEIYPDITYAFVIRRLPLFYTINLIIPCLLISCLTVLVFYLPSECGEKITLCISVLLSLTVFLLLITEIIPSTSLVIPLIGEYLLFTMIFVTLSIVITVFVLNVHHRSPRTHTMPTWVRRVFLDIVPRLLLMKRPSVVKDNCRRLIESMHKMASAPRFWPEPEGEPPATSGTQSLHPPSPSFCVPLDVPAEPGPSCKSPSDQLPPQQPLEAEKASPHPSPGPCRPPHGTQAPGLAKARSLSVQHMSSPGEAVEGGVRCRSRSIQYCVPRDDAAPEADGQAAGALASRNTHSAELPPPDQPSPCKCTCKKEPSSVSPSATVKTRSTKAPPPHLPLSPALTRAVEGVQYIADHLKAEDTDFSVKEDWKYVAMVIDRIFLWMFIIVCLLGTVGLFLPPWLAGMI
T2 sequence (P17787 26-502): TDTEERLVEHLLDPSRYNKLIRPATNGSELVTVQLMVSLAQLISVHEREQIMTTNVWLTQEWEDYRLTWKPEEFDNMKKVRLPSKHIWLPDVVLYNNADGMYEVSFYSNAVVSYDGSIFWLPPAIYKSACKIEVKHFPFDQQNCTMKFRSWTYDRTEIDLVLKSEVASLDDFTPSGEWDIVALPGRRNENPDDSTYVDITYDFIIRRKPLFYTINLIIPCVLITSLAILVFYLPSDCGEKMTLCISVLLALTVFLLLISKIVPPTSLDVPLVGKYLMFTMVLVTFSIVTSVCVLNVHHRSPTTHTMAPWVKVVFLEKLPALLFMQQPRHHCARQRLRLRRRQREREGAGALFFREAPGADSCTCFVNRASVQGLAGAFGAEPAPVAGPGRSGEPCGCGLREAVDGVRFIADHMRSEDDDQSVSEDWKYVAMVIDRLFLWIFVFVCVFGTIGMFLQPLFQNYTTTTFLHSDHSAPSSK
nAChR α3/β4, sequence (P32297 32-505): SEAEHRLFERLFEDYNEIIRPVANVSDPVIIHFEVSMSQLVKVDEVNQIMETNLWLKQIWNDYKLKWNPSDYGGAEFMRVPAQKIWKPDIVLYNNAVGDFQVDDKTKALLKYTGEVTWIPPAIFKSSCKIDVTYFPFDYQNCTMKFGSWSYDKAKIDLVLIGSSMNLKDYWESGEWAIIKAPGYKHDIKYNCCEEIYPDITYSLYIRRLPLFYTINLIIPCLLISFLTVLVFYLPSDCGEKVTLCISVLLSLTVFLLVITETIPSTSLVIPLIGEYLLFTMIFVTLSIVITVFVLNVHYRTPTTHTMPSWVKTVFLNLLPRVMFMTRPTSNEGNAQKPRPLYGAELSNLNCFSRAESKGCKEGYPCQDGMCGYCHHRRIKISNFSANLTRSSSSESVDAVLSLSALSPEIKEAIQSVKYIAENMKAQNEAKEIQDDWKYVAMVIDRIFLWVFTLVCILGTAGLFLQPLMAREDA
nAChR α3/β4, sequence (P30926 22-498): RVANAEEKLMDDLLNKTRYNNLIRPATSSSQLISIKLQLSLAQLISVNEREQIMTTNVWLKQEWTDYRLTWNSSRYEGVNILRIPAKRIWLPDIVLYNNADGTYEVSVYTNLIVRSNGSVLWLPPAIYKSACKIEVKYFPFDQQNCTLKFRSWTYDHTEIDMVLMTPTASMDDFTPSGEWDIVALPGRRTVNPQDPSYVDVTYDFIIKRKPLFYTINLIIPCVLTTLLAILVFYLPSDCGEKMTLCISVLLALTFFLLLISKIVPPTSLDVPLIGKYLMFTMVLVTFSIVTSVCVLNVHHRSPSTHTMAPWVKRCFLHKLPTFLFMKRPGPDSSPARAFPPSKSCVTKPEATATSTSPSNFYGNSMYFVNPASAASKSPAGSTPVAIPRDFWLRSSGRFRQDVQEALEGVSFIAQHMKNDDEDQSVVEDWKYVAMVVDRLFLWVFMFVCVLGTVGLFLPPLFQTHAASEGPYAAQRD
T1 sequence (P36544 23-502): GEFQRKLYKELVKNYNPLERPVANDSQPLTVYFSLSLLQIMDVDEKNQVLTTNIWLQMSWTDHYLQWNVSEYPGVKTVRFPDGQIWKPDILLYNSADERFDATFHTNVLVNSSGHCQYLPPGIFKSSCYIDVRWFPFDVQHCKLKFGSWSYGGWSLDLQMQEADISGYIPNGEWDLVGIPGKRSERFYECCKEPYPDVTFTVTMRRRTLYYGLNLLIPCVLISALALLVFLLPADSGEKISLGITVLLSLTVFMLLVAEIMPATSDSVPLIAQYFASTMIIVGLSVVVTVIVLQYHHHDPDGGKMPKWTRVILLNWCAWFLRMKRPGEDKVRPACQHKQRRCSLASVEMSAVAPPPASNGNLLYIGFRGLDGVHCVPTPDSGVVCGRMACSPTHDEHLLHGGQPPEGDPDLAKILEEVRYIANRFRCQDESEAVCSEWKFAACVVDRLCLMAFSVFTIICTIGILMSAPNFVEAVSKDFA

## CN1CCCC1c1cccnc1.O=C(O)C(O)C(O)C(=O)O (single isomer, unassigned; (-)) [Nicotine, (−) Nicotine hydrogen tartrate, reference compound]
nAChR α7
  agonist activity: showed agonist activity
[1]; [2]
  ANISOCYTOSIS: SLIGHT
  BASOPHIL: 0%
  EOSINOPHIL: 0%
  POLYCHROMASIA: SLIGHT
[1]; [3]
  LYMPHOCYTE: 83% and 87% and 89%
  MCHC: 34%
  MONOCYTE: 2% and 1% and 0%
  NEUTROPHILSEG: 15% and 12% and 11%
  RE[…]: 5.8% and 4.9% and 4.5%
[1]; [4]
  ANISOCYTOSIS: SLIGHT
  BASOPHIL: 0%
  EOSINOPHIL: 0%
  POLYCHROMASIA: SLIGHT
[1]; [5]
  HCT: 50%
  LYMPHOCYTE: 86% and 87% and 80% and 90%
  MONOCYTE: 2% (3×) and 4%
  NEUTROPHILSEG: 12% and 11% and 16% and 8%
  RE[…]: 4.3% and 4.8% and 5.6% and 6.1%
[1]; [6]
  BASOPHIL: 0.0%
  EOSINOPHIL: 0.0%
  HGB: 16.0 g/dL
  MONOCYTE: 1.0%
  PLATELET COUNT: 1.363e+06 µL⁻¹
  RBC: 8e+06 µL⁻¹
  RE[…]: 5.1%
  WBC: 10200 µL⁻¹
[1]; [7]
  BASOPHIL: 0.0%
  EOSINOPHIL: 0.0%
  MCHC: 34.0%
  MONOCYTE: 2.5%
  PLATELET COUNT: 1.3558e+06 µL⁻¹
  RBC: 7.6e+06 µL⁻¹
  RE[…]: 5.2%
  WBC: 11400 µL⁻¹
[1]; female rats, […] anatabine, 0.75 mg/kg nicotine i.v.
  mean corpuscular volume (MCV) and mean corpuscular hemoglobin (MCH) vs control: small, but statistically significant decreases
nAChR α4/β2; 100 μM Ach + 0.3 μM epibatidine, not concentration-dependent, IC50s could not be determined
  inhibition: inhibited receptor activity
nAChR α4/β2; test conc 0.3 μM
  Normalized % Potentiation: −46.00%
nAChR α4/β2; test conc 1 μM
  Normalized % Potentiation: −46.34%
nAChR α4/β2; test conc 3 μM
  Normalized % Potentiation: −40.54%
nAChR α4/β2; test conc 10 μM
  Normalized % Potentiation: −42.16%
nAChR α4/β2; test conc 30 μM
  Normalized % Potentiation: −43.70%
nAChR α4/β2; test conc 100 μM
  Normalized % Potentiation: −43.40%
nAChR α4/β2; test conc 300 μM
  Normalized % Potentiation: −34.56%
nAChR α4/β2; test conc 1000 μM
  Normalized % Potentiation: −39.66%
nAChR α3/β4
  potentiation: Neither nicotine nor anatabine potentiated
